These results are taken from patent publication US9181259B2 (LEO PHARMA A/S, priority 2012, dated 2015).

The target in the assay is T1, NK1 receptor (Homo sapiens, UniProt P25103).
T1 construct: Measurement of NK1 Receptor Mediated Intracellular [Ca^2+]; Mobilization in U251 MG Cells Using FLIPR; endogenous in cells; host or cells: U251 MG cells
T1 sequence (P25103 whole entry): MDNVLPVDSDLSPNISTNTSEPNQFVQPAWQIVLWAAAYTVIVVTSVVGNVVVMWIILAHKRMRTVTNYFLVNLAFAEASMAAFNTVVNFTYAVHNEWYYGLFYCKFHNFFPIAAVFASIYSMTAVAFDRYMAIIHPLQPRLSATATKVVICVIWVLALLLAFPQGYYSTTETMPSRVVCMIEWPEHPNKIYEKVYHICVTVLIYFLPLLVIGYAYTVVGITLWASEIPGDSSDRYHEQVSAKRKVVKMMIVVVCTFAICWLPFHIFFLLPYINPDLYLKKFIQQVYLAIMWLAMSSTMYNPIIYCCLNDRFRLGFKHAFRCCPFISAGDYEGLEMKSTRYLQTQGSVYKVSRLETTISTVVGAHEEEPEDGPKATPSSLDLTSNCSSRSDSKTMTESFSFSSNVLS
Put plainly: NK1 receptor mediated intracellular [Ca2+] mobilization in U251 MG cells using FLIPR. The format is cell-based. To be noted: antagonist potency against Substance P (EC80), normalized to 100 nM Aprepitant, read-out: U251MG (FLIPR pIC50) (converted). Here is the method:
Measurement of NK1 Receptor Mediated Intracellular [Ca^2+] Mobilization in U251 MG Cells Using FLIPR
U251 MG cells were seeded into black walled clear-bottom 384-well plates (Greiner Bio-One GmbH, Frickenhausen, Germany) at a density of 15,000 cells/well in 50 μl culture medium and cultured overnight in a 37° C. 5% CO2 incubator. The cells were then loaded with the calcium sensitive dye Fluo-4 (Invitrogen) at 1 μM in buffer, containing 0.04%
Pluronic F-127 (Sigma-Aldrich), and 2.5 mM probenecid (Sigma-Aldrich) for 60 min in a humidified atmosphere of 5% CO2. Thereafter, cells were washed three times in washing buffer containing 20 mM HEPES and 2.5 mM probenecid pH 7.3. Serial dilutions of test compounds in assay buffer containing 2% dimethyl sulfoxide (final concentration in the cell plate is 0.5% DMSO) and/or agonist were then automatically pipetted into each test well, and the peak fluorescence intensity was recorded (lex, 488 nm; lem, 540 nm) by the FLIPR instrument (Molecular Devices) for approximately 5 min. To measure antagonist potency, cell plates were first incubated with the test compound and intracellular fluorescence recorded for 5 minutes to check a potential agonist effect of the test compound. Cell plates were quickly removed from the FLIPR instrument and incubated for additional 10 minutes at 37° C. before being moved back to the FLIPR instrument for Substance P (EC80) addition. The response was measured as the peak relative fluorescence change after agonist addition.
The IC50 value is defined as the molar concentration of a test compound that produces a response midway between the fitted top and the fitted bottom. pIC50=−log IC50
Formula is listed as follows: Fit(% Effect calculated)=(A+((B−A)/(1+((C/X)^D)))) • A: bottom value • B: top value • C: […] • D: Hill slope coefficient
Ref: Sullivan E, Tucker E M, and Dale I L. Measurement of [Ca^2+] using the Fluorometric Imaging Plate Reader (FLIPR). Methods Mol Biol 114:125-133, 1999.
Compounds of the present invention were tested according to example 120.
Regarding `Cc1ccccc1C1C2CC(CN3CCOCC3)C(=O)N2CCN1C(=O)N(C)[C@H](C)c1cc(C(F)(F)F)cc(C(F)(F)F)c1` (single isomer, unassigned) [Compound 74], the IC50 was 0.0891 nM.
Take `COC(=O)C1(C)CC2C(c3ccccc3C)N(C(=O)N(C)Cc3cc(C(F)(F)F)cc(C(F)(F)F)c3)CCN2C1=O` (single isomer, unassigned) [Compound 14, Methyl 2-({[3,5-bis(trifluoromethyl)phenyl]methyl}(methyl)carbamoyl)-7-methyl-1-(2-methylphenyl)-6-oxo-octahydropyrrolo{1,2-a}piperazine-7-carboxylate]: the IC50 is 0.0692 nM.
Then `Cc1ccccc1C1C2CC(CO)CN2CCN1C(=O)N(C)[C@H](C)c1cc(C(F)(F)F)cc(C(F)(F)F)c1` (single isomer, unassigned) [Compound 69], with 0.214 nM; and `Cc1ccccc1C1C2CCCN2CCN1C(=O)N(C)[C@H](C)c1cc(C(F)(F)F)cc(C(F)(F)F)c1` (single isomer, unassigned) [Compound 64], with 42.7 nM; and `Cc1ccccc1C1C2CC(CO)C(=O)N2CCN1C(=O)N(C)[C@H](C)c1cc(C(F)(F)F)cc(C(F)(F)F)c1` (single isomer, unassigned) [Compound 57], with 1.51 nM.
As to `Cc1ccccc1C1C2CC(C)(C(=O)N(C)C)C(=O)N2CCN1C(=O)N(C)Cc1cc(C(F)(F)F)cc(C(F)(F)F)c1` (single isomer, unassigned) [Compound 25, 2-N-{[3,5-bis(trifluoromethyl)phenyl]methyl}-2-N,7-N,7-N,7-tetramethyl-1-(2-methylphenyl)-6-oxo-octahydropyrrolo[1,2-a]piperazine-2,7-dicarboxamide], the IC50 was 22.9 nM.
With `Cc1ccccc1C1C2CC(CO)CN2CCN1C(=O)N(C)[C@H](C)c1cc(C(F)(F)F)cc(C(F)(F)F)c1` (single isomer, unassigned) [Compound 67], the IC50 was 0.204 nM.
Take `Cc1ccccc1C1C2CC(CCO)CN2CCN1C(=O)N(C)C(CCO)c1cc(C(F)(F)F)cc(C(F)(F)F)c1` (centres unmarked) [Compound 36, N-{1-[3,5-bis(trifluoromethyl)phenyl]-3-hydroxypropyl}-7-(2-hydroxyethyl)-N-methyl-1-(2-methylphenyl)-octahydropyrrolo[1,2-a]piperazine-2-carboxamide]: the IC50 is 0.724 nM.
Consider `COC(=O)C1(C)CC2C(c3ccccc3C)N(C(=O)N(C)Cc3cc(C(F)(F)F)cc(C(F)(F)F)c3)CCN2C1=O` (single isomer, unassigned) [Compound 12, Methyl 2-({[3,5-bis(trifluoromethyl)phenyl]methyl}(methyl)carbamoyl)-7-methyl-1-(2-methylphenyl)-6-oxo-octahydropyrrolo{1,2-a}piperazine-7-carboxylate], for which the IC50 was 1.78 nM.
For `Cc1ccccc1C1C2CCC(=O)N2CCN1C(=O)N(C)Cc1cc(F)cc(C(F)(F)F)c1` (single isomer, unassigned) [Compound 4, N-{[3-fluoro-5-(trifluoromethyl)phenyl]methyl}-N-methyl-1-(2-methylphenyl)-6-oxo-octahydropyrrolo[1,2-a]piperazine-2-carboxamide], the IC50 is 81.3 nM.
As for `Cc1ccccc1C1C2CC(CCO)(CCO)CN2CCN1C(=O)N(C)Cc1cc(C(F)(F)F)cc(C(F)(F)F)c1` (single isomer, unassigned) [Compound 65, N-{[3,5-bis(trifluoromethyl)phenyl]methyl}-7,7-bis(2-hydroxyethyl)-N-methyl-1-(2-methylphenyl)-octahydropyrrolo[1,2-a]piperazine-2-carboxamide], the IC50 is 30.2 nM.
Next, `Cc1ccccc1C1C2CC(CN3CCOCC3)C(=O)N2CCN1C(=O)N(C)Cc1cc(C(F)(F)F)cc(C(F)(F)F)c1` (single isomer, unassigned) [Compound 51]: 0.12 nM.
Next, `Cc1cc(C)cc(CN(C)C(=O)N2CCN3C(=O)CCC3C2c2ccccc2C)c1` (single isomer, unassigned) [Compound 2, N-[(3,5-dimethylphenyl)methyl]-N-methyl-1-(2-methylphenyl)-6-oxo-octahydropyrrolo[1,2-a]piperazine-2-carboxamide]: 77.6 nM; `Cc1ccccc1C1C2CC(CO)C(=O)N2CCN1C(=O)N(C)Cc1cc(C(F)(F)F)cc(C(F)(F)F)c1` (single isomer, unassigned) [Compound 23, N-{[3,5-bis(trifluoromethyl)phenyl]methyl}-7-(hydroxymethyl)-N-methyl-1-(2-methylphenyl)-6-oxo-octahydropyrrolo[1,2-a]piperazine-2-carboxamide]: 0.0776 nM.
Next, `Cc1ccccc1C1C2CCCN2CCN1C(=O)N(C)Cc1cc(C(F)(F)F)cc(C(F)(F)F)c1` (racemic) [Compound 24, N-{[3,5-bis(trifluoromethyl)phenyl]methyl}-N-methyl-1-(2-methylphenyl)-octahydropyrrolo[1,2-a]piperazine-2-carboxamide]: 1.35 nM.
On to `Cc1ccccc1[C@H]1[C@@H]2CC(CCO)(CCO)C(=O)N2CCN1C(=O)N(C)[C@@H](CO)c1cc(C(F)(F)F)cc(C(F)(F)F)c1` [Compound 87, (1S,8aS)-N-((R)-1-(3,5-bis(trifluoromethyl)phenyl)-2-hydroxyethyl)-7,7-bis(2-hydroxyethyl)-N-methyl-6-oxo-1-o-tolylhexahydropyrrolo[1,2-a]pyrazine-2(1H)-carboxamide], for which the IC50 is 0.204 nM.
For `Cc1ccccc1C1C2CCC(=O)N2CCN1C(=O)N(C)Cc1cccc(C(F)(F)F)c1` (single isomer, unassigned) [Compound 6, N-methyl-1-(2-methylphenyl)-6-oxo-N-{[3-(trifluoromethyl)phenyl]methyl}-Octahydropyrrolo[1,2-a]piperazine-2-carboxamide], the IC50 is greater than 100 nM.
Turning to `Cc1ccccc1C1C2CC(CN3CCCC3)C(=O)N2CCN1C(=O)N(C)Cc1cc(C(F)(F)F)cc(C(F)(F)F)c1` (single isomer, unassigned) [Compound 31, N-{[3,5-bis(trifluoromethyl)phenyl]methyl}-N-methyl-1-(2-methylphenyl)-6-oxo-7-(pyrrolidin-1-ylmethyl)-octahydropyrrolo[1,2-a]piperazine-2-carboxamide], the IC50 was 0.513 nM.
Next, `Cc1ccccc1C1C2CC(CO)C(=O)N2CCN1C(=O)N(C)Cc1cc(C(F)(F)F)cc(C(F)(F)F)c1` (single isomer, unassigned) [Compound 19, N-{[3,5-bis(trifluoromethyl)phenyl]methyl}-7-(hydroxymethyl)-N-methyl-1-(2-methylphenyl)-6-oxo-octahydropyrrolo[1,2-a]piperazine-2-carboxamide]: 3.72 nM.
`C=C1CC2C(c3ccccc3C)N(C(=O)N(C)Cc3cc(C(F)(F)F)cc(C(F)(F)F)c3)CCN2C1=O` (single isomer, unassigned) [Compound 32, N-{[3,5-bis(trifluoromethyl)phenyl]methyl}-N-methyl-7-methylidene-1-(2-methylphenyl)-6-oxo-octahydropyrrolo[1,2-a]piperazine-2-carboxamide]: the IC50 is 0.437 nM.
Next, `Cc1ccccc1C1C2CC(CO)C(=O)N2CCN1C(=O)N(C)Cc1cc(C(F)(F)F)cc(C(F)(F)F)c1` (single isomer, unassigned) [Compound 20, N-{[3,5-bis(trifluoromethyl)phenyl]methyl}-7-(hydroxymethyl)-N-methyl-1-(2-methylphenyl)-6-oxo-octahydropyrrolo[1,2-a]piperazine-2-carboxamide]: 1.66 nM; `Cc1ccccc1C1C2CC(CO)CN2CCN1C(=O)N(C)Cc1cc(C(F)(F)F)cc(C(F)(F)F)c1` (single isomer, unassigned) [Compound 48, N-{[3,5-bis(trifluoromethyl)phenyl]methyl}-7-(hydroxymethyl)-N-methyl-1-(2-methylphenyl)-octahydropyrrolo[1,2-a]piperazine-2-carboxamide]: 0.224 nM.
Next, `Cc1ccccc1C1C2CC(CCO)C(=O)N2CCN1C(=O)N(C)C(CCO)c1cc(C(F)(F)F)cc(C(F)(F)F)c1` (racemic) [Compound 33, N-{1-[3,5-bis(trifluoromethyl)phenyl]-3-hydroxypropyl}-7-(2-hydroxyethyl)-N-methyl-1-(2-methylphenyl)-6-oxo-octahydropyrrolo[1,2-a]piperazine-2-carboxamide]: 0.158 nM.
